US6939874B2, “Substituted pyrimidinyl derivatives and methods of use” (Amgen Inc., priority 2001, dated 2005)

Test system: 3T3
Test: IGF-1-induced DNA synthesis (3H-thymidine incorporation)
Type: cell-based
Settings: NIH3T3, activated with 50 ng/mL IGF-1, read-out: inhibited 3T3 proliferation
Description: IGF-1-Induced DNA Synthesis.
Human tumor cell lines or a rat fibroblast cell line are plated out in flat-well plates in complete medium and allowed to adhere overnight. The cells are then starved in medium containing 0.1% bovine serum albumin (BSA) overnight, pre-incubated for 1 h with or without dilutions of compound, then activated overnight with 50 ng/mL insulin-like growth factor (IGF-1). Proliferation is determined by the level of ^3H-thymidine incorporation into DNA.

Row | Structure (SMILES) | IC50 [nM]
1 | CC(=O)c1ccc(Nc2nccc(Nc3cnc4ccccc4c3)n2)cc1 [Example 59, 1-(4-((4-(3-quinalinylamino)-2-pyrimidinyl)amino)phenyl)ethanone] | < 150
2 | COc1cc(Nc2nccc(Nc3cnc4ccc(O)cc4c3)n2)cc(OC)c1OC [Example 135, N^4-(6-Hydroxy-quinolin-3-yl)-N^2-(3,4,5-tris(methoxy)phenyl)-2,4-pyrimidinediamine] | < 150
3 | CC(=O)N1CC(C)(C)c2ccc(Nc3nccc(Nc4cnc5ccccc5c4)n3)cc21 [Example 110, N^2-(1-acetyl-3,3-dimethyl-2,3-dihydro-1H-indol-6-yl)-N^4-(3-quinolinyl)-2,4-pyrimidinediamine] | < 150
4 | CN1CCN(c2ccc(Nc3nccc(Nc4cnc5ccccc5c4)n3)cc2)CC1 [Example 84, N^2-(4-(4-methyl-1-piperazinyl)phenyl)-N^4-(3-qulnolinyl)-2,4-pyrimidinediamine] | < 150
5 | c1cc(Nc2nccc(Nc3cnc4ccccc4c3)n2)cc(-c2cnco2)c1 [Example 104, N^2-(3-(1,3-oxazol-5-yl)phenyl)-N^4-(3-quinolinyl)-2,4-pyrimidinediamine] | < 150
6 | COc1cc(Nc2nccc(Nc3ccc4ncccc4c3)n2)cc(OC)c1OC [Example 14, N^4-quinolin-6-yl-N^2-(3,4,5-trimethoxyphenyl)-pyrimidine-2,4-diamine] | < 150
7 | COc1cc(Nc2nccc(Nc3ccc4nc(C)ccc4c3)n2)cc(OC)c1OC [Example 118, N^4-(2-Methyl-6-quinolinyl)-N^2-(3,4,5-tris(methoxy)phenyl)-2,4-pyrimidinediamine] | < 150
8 | COc1cc(Nc2nccc(Nc3cnc4ccccc4c3)n2)ccc1CCCN1CCCC1 [Example 150, N^2-[3-Methoxy-4-(3-pyrrolidin-1-yl-propyl)-phenyl]-N-4-quinolin-3-yl-pyrimidine-2,4-diamine] | < 150
9 | COc1cc(Nc2nccc(Nc3cnc4ccccc4c3)n2)ccc1OCCN1CCN(c2nccc(Nc3cnc4ccccc4c3)n2)CC1 [Example 132, N^2-[3-Methoxy-4-(2-{4-[4-(quinolin-3-ylamino)-pyrimidin-2-yl]-piperazin-1-yl}-ethoxy)-phenyl]-N^4-quinolin-3-yl-pyrimidine-2,4-diamine] | < 150
10 | COc1ccc2ncc(Nc3ccnc(Nc4cc(OC)c(OC)cc4C)n3)cc2c1 [Example 137, N^4-(6-Methoxy-3-quinolinyl)-N^2-(2-methyl-4,5-dimethoxyphenyl)-2,4-pyrimidinediamine] | < 150
11 | c1ccc2ncc(Nc3ccnc(Nc4ccc(OCCN5CCCCC5)cc4)n3)cc2c1 [Example 99, N^2-(4-((2-(1-Piperidinyl)ethyl)oxy)phenyl)-N^4-(3-quinolinyl)-2,4-pyrimidinediamine] | < 150
12 | COc1cc(C)c(Nc2nccc(Nc3cnc4ccc(OC(F)(F)F)cc4c3)n2)cc1OC [Example 140, N^2-(2-Methyl-4,5-dimethoxyphenyl)-N^4-(6-trifluoromethoxy-3-quinolinyl)-2,4-pyrimidinediamine] | < 150
13 | c1cc(Nc2nccc(Nc3ccc4ncccc4c3)n2)cc(-c2cnco2)c1 [Example 105, N^2-(3-(1,3-oxazol-5-yl)phenyl)-N^4-(6-quinolinyl)-2,4-pyrimidinediamine] | < 150
14 | c1ccc2ncc(Nc3ccnc(Nc4ccc(N5CCOCC5)cc4)n3)cc2c1 [Example 48, N^2-(4-(4-morpholinyl)phenyl)-N -(3-quinolinyl)-2,4-pyrimidinediamine] | < 150
15 | c1ccc2ncc(Nc3ccnc(Nc4ccc(N5CCOCC5)nc4)n3)cc2c1 [Example 49, N^2-(6-(4-morpholinyl)-3-pyridinyl)-N^4-(3-quinolinyl)-2,4-pyrimidinediamine] | < 150
16 | COc1ccc(Nc2nccc(Nc3cnc4ccccc4c3)n2)cc1CCN(C)C [Example 100] | < 150
17 | COc1cc(Nc2nccc(Nc3cnc4ccccc4c3)n2)ccc1CCC(=O)N1CCCC1 [Example 149, 3-{2-Methoxy-4-[4-(quinolin-3-ylamino)-pyrimidin-2-ylamino]-phenyl}-1-pyrrolidin-1-yl-propanone] | < 150
18 | COc1cc(Nc2nccc(Nc3cnc4ccccc4c3)n2)cc(OC)c1OC [Example 1, N^4-Quinolin-3-yl-N^2-(3,4,5-trimethoxyphenyl)pyrimidine-2,4-diamine] | < 150
19 | COc1cc(Nc2nccc(Nc3cnc4ccccc4c3)n2)ccc1/C=C/C(=O)N1CCCC1 [Example 148, 3-{2-Methoxy-4-[4-(quinolin-3-ylamino)-pyrimidin-2-ylamino]-phenyl}-1-pyrrolidin-1-yl-propenone] | < 150
20 | COc1cc(Nc2nccc(Nc3cnc4ccccc4c3)n2)ccc1OCCC1CCN(c2nccc(Nc3cnc4ccccc4c3)n2)CC1 [Example 151, N^2-[3-Methoxy-4-(2-{1-[4-(quinolin-3-ylamino)-pyrimidin-2-yl]-piperidin-4-yl}-ethoxy)-phenyl]-N^4-quinolin-3-yl-pyrimidine-2,4-diamine] | < 150
21 | COc1ccc2ncc(Nc3ccnc(Nc4cc(OC)c(OC)c(OC)c4)n3)cc2c1 [Example 134, N^4-(6-Methoxy-quinolin-3-yl)-N^2-(3,4,5-tris(methoxy)phenyl)-2,4-pyrimidinediamine] | < 150
22 | c1ccc2ncc(Nc3ccnc(Nc4ccc(OCCCN5CCCCC5)cc4)n3)cc2c1 [Example 98, N^2-[4-(3-Piperidin-1-yl-propoxy)-phenyl]-N^4-4-quinolin-3-yl-pyrimidine-2,4-diamine] | < 150
23 | COc1cc(Nc2nccc(Nc3cnc4ccccc4c3)n2)ccc1C(N)=O [Example 94, 2-(Methoxy)-4-((4-(3-quinolinylamino)-2-pyrimidinyl)amino)benzamide] | < 150
24 | COc1cc(C)c(Nc2nccc(Nc3cnc4ccccc4c3)n2)cc1OC [Example 20, N^2-(3,4-dimethoxy-6-methylphenyl)-N^4-quinolin-3-yl-pyrimidine-2,4-diamine] | < 150
25 | COc1cc(Nc2nccc(Nc3cnc4ccc(OC(F)(F)F)cc4c3)n2)cc(OC)c1OC [Example 139, N^2-(3,4,5-Tris(methoxy)phenyl)-N^4-(6-trifluoromethoxy-3-quinolinyl)-2,4-pyrimidinediamine] | < 150
26 | COc1cc(Nc2nccc(Nc3cc4ccccc4c(OC)n3)n2)cc(OC)c1OC [Example 130, N^4-(1-Methoxy-isoquinolin-3-yl)-N^2-(3,4,5-trimethoxy-phenyl)-pyrimidine-2,4-diamine] | < 150
